Values quoted from earlier work, collected in patent US20140213605A1, “METHODS FOR TREATING EYE DISORDERS USING OPIOID RECEPTOR ANTAGONISTS” (priority 2013, published 2014).

Legend:
[1] = in vivo

SMILES	Excreted unchanged [1]	Effect on incidence of re-epithelialization of the rat cornea (rat cornea; systemically administered)	Effect on re-epithelialization of the rat cornea (rat cornea; topical application in sterile water)	Bound to plasma protein [1]
O=C1CC[C@@]2(O)[C@H]3Cc4ccc(O)c5c4[C@@]2(CCN3CC2CC2)[C@H]1O5 [Naltrexone]	Less than 1%	markedly influenced the incidence of re-epithelialization	not effective	–
Oc1ccc2c3c1O[C@H]1[C@H](O)CC[C@@]4(O)[C@@H](C2)N(CC2CC2)CC[C@]314 [6-β-naltrexol]	–	–	–	Approximately 20%
